Assay results reported in US4720486A, “Method of inhibiting vertebrate collagenase activity using peptide hydroxamic acid derivatives” (Monsanto Company, priority 1987, dated 1988).
Where a SMILES comes first, the peptide text is derived from it. The star is where a group is joined. Cbz = O=C(OCc1ccccc1)*; NHOH = ON*

Columns and labels:
Type in all cases: biochemical
[1] = target: T1, human skin fibroblast collagenase (Homo sapiens, UniProt P03956); experiment: Collagenase inhibition test (14C-collagen assay), skin fibroblast collagenase; conditions: 0.50 M NaCl, 0.01 M CaCl2, 0.05 M Tris, pH 7.5, 35° C.; Dixon plot, single substrate concentration 10 μM collagen
T1 construct: active collagenase isolated by this method consisted of two bands, a major species with molecular weight 45,000; host or cells: normal human skin fibroblasts CRL 1224 in SK Hepatoma conditioned medium
T1 sequence (P03956 100-469): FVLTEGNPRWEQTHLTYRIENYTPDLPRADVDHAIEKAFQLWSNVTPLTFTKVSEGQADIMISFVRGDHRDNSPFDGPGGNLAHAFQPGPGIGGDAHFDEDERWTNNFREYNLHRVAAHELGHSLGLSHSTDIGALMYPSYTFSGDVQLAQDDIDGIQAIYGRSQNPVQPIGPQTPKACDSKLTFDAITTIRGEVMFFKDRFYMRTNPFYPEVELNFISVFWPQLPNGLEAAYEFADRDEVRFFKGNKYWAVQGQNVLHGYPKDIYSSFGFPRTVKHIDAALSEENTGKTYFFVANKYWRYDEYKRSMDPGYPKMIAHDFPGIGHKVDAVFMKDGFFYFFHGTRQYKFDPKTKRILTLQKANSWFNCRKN
Description: (§1) ^14 C-collagen was prepared by reductive methylation of calf skin collagen at 4° C. using ^14 C-formaldehyde and sodium borohydride. Calf skin collagen (Sigma) was dissolved at 7.5 mg/ml in 60 ml of 0.10M acetic acid and dialyzed at 4° C. against 0.15M potassium phosphate, pH 7.6, for eight hours followed by dialysis overnight against 0.4M NaCl. The collagen solution was then adjusted to pH 9.0 by addition of 0.50M sodium borate and then 1 mCi of ^14 C-formaldehyde (10 mCi/mmol) was added. After one minute, 0.10M sodium borohydride (660 μl in 1.3 mM NaOH) was added in four aliquots, followed by an additional aliquot (340 μl) 30 minutes later. The solution was then dialyzed exhaustively against 0.01M acetic acid, centrifuged to remove particulates and stored frozen in 1 ml aliquots. Specific activity was 1.3×10^6 DPM/mg. Unlabeled collagen was prepared in the same way, stored frozen and mixed with labeled collagen at a ratio of 9 to 1. For assay, the diluted ^14 C-collagen was dialyzed 6-8 hours at 4° C. against 0.15M potassium phosphate, pH 7.6, followed by dialysis overnight against 0.4M sodium chloride. This solution was centrifuged to remove any undissolved collagen and stored at 4° C.
(§2) Collagenase asays were carried out according to the method of Terato et al., Biochim. Biophys. Acta 445, 753 (1976). They were performed in 1.5 ml polypropylene microfuge tubes. Each assay tube contained 50 μl of ^14 C-collagen solution (4 mg/ml) and 50 μl of 1.0M glucose, 0.10M Tris, 0.4M NaCl, 0.02M CaCl2, pH 7.5. This solution was incubated for ten minutes at 35° C. and the reaction initiated by the addition of 100 μl of enzyme solution. Those samples containing procollagenase were first activated by incubating 100 μl aliquots with 1-5 μl of 10 mg/ml trypsin (in 1 mM HCl) for 20 minutes at 23° C., followed by 20 μl of 5 mg/ml soybean trypsin inhibitor (in 0.05M Tris, 0.01M CaCl2, pH 7.5) to quench the trypsin activity. The collagenase assay was terminated after 30 minutes at 35° C. by the addition of 20 μl of 0.08M 1,10-phenanthroline in 50% (v/v) dioxane and the incubation was continued for one hour at 35° C. to denature the collagen digestion products. Each sample was cooled for 15 minutes at 23° and 200 μl of dioxane was added with vigorous vortexing to precipitate uncleaved collagen. Following centrifugation at 11,000 RPM, 350 μl aliquots were added to 5.0 ml of Pico-Fluor 30 to determine radioactivity.
(§3) Collagenase activities were measured in the presence of the test compounds by adding an aliquot of the compound (0-85 μl) and buffer to 100 μl of glucose-collagen solution to give a total volume of 185 μl, incubating at 35° C. for 10 minutes and then initiating the reaction with 15 μl of purified collagenase. The rest of the assay was performed as described above.
(§4) To determine the mechanism of inhibition, the following equation was used [(Holmquist and Vallee, J. Biol. Chem. 249, 4601 (1974)] [formula] where Ao is the activity in the absence of inhibitor and AI is the activity in the presence of inhibitor.
One vial of normal skin fibroblasts was purchased (American Type Cell Culture CRL 1224), thawed at 37° C. and transferred to a 150 cm^2 T-flask. Fifty ml of DMEM containing 10% FBS were added and the cells incubated for one week at 37° C. under 5% CO2. The cells were then split into three T-flasks. When the flasks became overgrown with cells, normal media was replaced with SK Hepatoma conditioned media and changed twice a week. This media was stored and used as the starting material for collagenase isolation.
The other test compounds were assumed to inhibit by the same mechanism so that all studies were performed at only a single substrate concentration, 10μM, and the KI values were determined from the intersection with the abscissa.

[2] = target: T2, human synovial collagenase (Homo sapiens, UniProt P03956); experiment: Collagenase inhibition test (14C-collagen assay), synovial collagenase; conditions: for Ki: 0.50 M NaCl, 0.01 M CaCl2, 0.05 M Tris, pH 7.5, 35° C., Dixon plot, single substrate concentration 10 μM collagen
T2 construct: endogenous in cells; host or cells: primary human synovial cells from a knee synovectomy, stimulated with SK Hepatoma conditioned medium
T2 sequence (P03956 100-469): T1 sequence (P03956 100-469)
Description: as §1, §2, §3, §4
Approximately 2.0 gms of synovial tissue were obtained from a patient undergoing synovectomy of the knee. All procedures were carried out in a laminar flow hood under aseptic conditions. The tissue was placed in 250 ml McCoys 5A (modified) medium containing 200 μg/ml gentamicin and stored overnight at 0° C. The next day the tissue was warmed to room temperature, cut into 0.25 cm pieces and added to 11 ml of serum-free DMEM, containing 4 mg/ml clostridial collagenase (Worthington). After incubating the mixture for one hour at room temperature, an equal volume of 0.25% trypsin was added and the incubation continued for an additional thirty minutes. The cells were spun down at 400×g for ten minutes, resuspended in 20 ml trypsin/EDTA (Gibco 10×) and incubated for 30 minutes with occasional mixing by drawing through a 25 ml pipet. The suspension was centrifuged and the pellet was washed two times with PBS:DMEM (1:1) containing 10% FBS. […]

[3] = target: T3, human collagenase isolated from skin fibroblasts and synovial cells (Homo sapiens, UniProt P03956); experiment: Collagenase inhibition, (enzyme source not distinguished)
T3 construct: endogenous in cells; host or cells: human skin fibroblasts (CRL 1224) or primary human synovial cells; enzyme purified from conditioned medium
T3 sequence (P03956 100-469): T1 sequence (P03956 100-469)
Description: as §1, §2
as §3, with “above. […]” for “above.”

Row | SMILES | Ki [1] [µM] | Ki [2] [µM] | also measured
1 | O=C(CNC(=O)OCc1ccccc1)NO [Z--Gly--NHOH] | 600 | 960 | 
2 | CC(C)C[C@H](NC(=O)OCc1ccccc1)C(=O)N[C@@H](CC(C)C)C(=O)NCC(=O)NO [Z--Leu--Leu--Gly--NHOH] (Cbz-Leu-Leu-Gly-{NHOH}) | 300 | 330 | 
3 | CC(C)CC(C(=O)NO)C(=O)N[C@@H](C)C(=O)NCC(N)=O (stereo partly drawn) [Zincov, 2-(N-Hydroxycarboxamido)-4-methylpentanoyl-L-Ala-glycine amide] |  |  | Ki ([3]; human collagenase): 2000 µM
4 | CC(C)C[C@H](NC(=O)[C@@H]1CCCN1C(=O)OCc1ccccc1)C(=O)NCC(=O)NO [Z--Pro--Leu--Gly--NHOH, N-Benzyloxycarbonyl-L-prolyl-L-leucylglycine Hydroxamic Acid] (Cbz-Pro-Leu-Gly-{NHOH}) | 40 | 47 | times more active than Zincov ([3]; estimated, ratio of KI values): 50 to 100 times; KI ([3]; human collagenase): 40 µM; times more effective than the corresponding Z--Leu--Leu--Gly--NHOH analog ([3]; ratio of KI values): ten; mechanism of inhibition (Dixon plot) ([2]; three substrate concentrations, 3.9 μM, 1.3 μM and 0.7 μM collagen, FIG. 1): non-competitive inhibition
5 | NCC(=O)NO [Gly--NHOH] | > 1000 | 18000 | 
6 | O=C(CNC(=O)C(Cc1ccccc1)NC(=O)OCc1ccccc1)NO (centres unmarked) [Z--Phe--Gly--NHOH] | 150 | 100 | 
7 | O=C(CNC(=O)CNC(=O)OCc1ccccc1)NO [Z--Gly--Gly--NHOH] (Cbz-Gly-Gly-{NHOH}) | 3000 | 2000 | 

Second part, led by results:

Row | Ki [1] [µM] | Ki [2] [µM] | SMILES | also measured
8 | 150 | 200 | CSCCC(NC(=O)OCc1ccccc1)C(=O)NCC(=O)NO (centres unmarked) [Z--Met--Gly--NHOH] | 
9 | 480 | 170 | CC(C)CC(NC(=O)OCc1ccccc1)C(=O)NCC(=O)NO (centres unmarked) [Z--Leu--Gly--NHOH] | 
10 | 1300 | 2600 | CC(NC(=O)OCc1ccccc1)C(=O)NCC(=O)NO (centres unmarked) [Z--Ala--Gly--NHOH] | 
